Reference: US8952024B2, “Herbicidal pyrimidone derivatives” (E I du Pont de Nemours and Company, priority 2009, dated 2015)

What was measured:
Assay type in all cases: in vivo
[1] = system: barnyardgrass (Echinochloa crus-galli); assay: Test B flooded paddy test; conditions: for Plant response rating, Flood, Barnyardgrass: 250 g ai/ha, flooded paddy test, visual rating on 0 to 100 scale (0 no effect, 100 complete control) after 13 to 15 days; for Plant response rating, Barnyardgrass: Flood (flooded paddy test), 13 to 15 days; for Barnyardgrass plant response rating: Flood, 31 g ai/ha, scale 0 to 100 (0 no effect, 100 complete control)
Outline: (§1)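 Seedlings reaching 2 leaves are flooded 3 cm deep; test material is delivered to that water, which stays at the same depth. Plants remain in a greenhouse 13–15 days and are then scored by eye versus controls from 0 to 100.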

[2] = system: rice (Oryza sativa); assay: Test B flooded paddy test; conditions: for Plant response rating, Flood, Rice: 250 g ai/ha, flooded paddy test, visual rating on 0 to 100 scale (0 no effect, 100 complete control) after 13 to 15 days; for Plant response rating, Rice: Flood (flooded paddy test), 13 to 15 days; for Rice plant response rating: Flood, 31 g ai/ha, scale 0 to 100 (0 no effect, 100 complete control)
Outline: as §1

[3] = system: ducksalad (Heteranthera limosa); assay: Test B flooded paddy test; conditions: for Plant response rating, Flood, Ducksalad: 250 g ai/ha, flooded paddy test, visual rating on 0 to 100 scale (0 no effect, 100 complete control) after 13 to 15 days; for Plant response rating, Ducksalad: Flood (flooded paddy test), 13 to 15 days; for Ducksalad plant response rating: Flood, 31 g ai/ha, scale 0 to 100 (0 no effect, 100 complete control)
Outline: as §1

[4] = system: umbrella sedge (Cyperus difformis); assay: Test B flooded paddy test; conditions: for Plant response rating, Flood, Sedge, Umbrella: 250 g ai/ha, flooded paddy test, visual rating on 0 to 100 scale (0 no effect, 100 complete control) after 13 to 15 days; for Plant response rating, Sedge, Umbrella: Flood (flooded paddy test), 13 to 15 days; for Sedge, Umbrella plant response rating: Flood, 31 g ai/ha, scale 0 to 100 (0 no effect, 100 complete control)
Outline: as §1

[5] = system: barnyardgrass (Echinochloa crus-galli); assay: Test A pre-/postemergence plant response
Outline: (§2)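 Pre: directed soil spray on seeded loam/sand blend. Post: same formulation (non-phytotoxic solvent + surfactant) on 2–10 cm plants, 1–2 leaf stage. Greenhouse ~10 d; visual injury score 0–100 vs untreated.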

[6] = system: morningglory (Ipomoea spp.); assay: Test A pre-/postemergence plant response
Outline: as §2

[7] = system: wheat (Triticum aestivum); assay: Test A pre-/postemergence plant response
Outline: as §2

[8] = system: corn (Zea mays); assay: Test A pre-/postemergence plant response
Outline: as §2

[9] = system: velvetleaf (Abutilon theophrasti); assay: Test A pre-/postemergence plant response
Outline: as §2

[10] = system: large crabgrass (Digitaria sanguinalis); assay: Test A pre-/postemergence plant response
Outline: as §2

[11] = system: pigweed (Amaranthus retroflexus); assay: Test A pre-/postemergence plant response
Outline: as §2

[12] = system: giant foxtail (Setaria faberii); assay: Test A pre-/postemergence plant response
Outline: as §2

[13] = system: windgrass (Apera spica-venti); assay: Test B postemergence plant response; conditions: for Windgrass plant response rating (0 to 100 scale): 62 g ai/ha, postemergence, 0 is no effect, 100 is complete control; for Plant response rating, Windgrass: Postemergence
Outline: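 Plants grown in peat/vermiculite medium were sprayed postemergence at 2–18 cm height (1- to 4-leaf stage). After 13–15 days in the greenhouse, response was rated visually against untreated controls on a 0–100 scale (0 no effect, 100 complete control).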

[14] = 62 g ai/ha, scale of 0 to 100 where 0 is no effect and 100 is complete control
[15] = 125 g ai/ha, scale 0 to 100, 0 is no effect, 100 is complete control
[16] = Postemergence, 125 g ai/ha, 0 to 100 scale where 0 is no effect and 100 is complete control
[17] = Postemergence, 500 g ai/ha, 0 to 100 scale, 0 = no effect, 100 = complete control, approx. ten days
[18] = Preemergence, 125 g ai/ha, 0 to 100 scale, 0 = no effect, 100 = complete control
[19] = Preemergence, 500 g ai/ha, visual injury, 0 to 100 scale (0 no effect, 100 complete control), approx. ten days
[20] = 31 g ai/ha, 0 to 100 scale (0 no effect, 100 complete control)
[21] = 125 g ai/ha, scale 0 to 100 (0 no effect, 100 complete control)
[22] = 250 g ai/ha, scale 0 to 100 (0 no effect, 100 complete control), 13 to 15 days

O=C1CCCC(O)=C1C(=O)c1cnc(-c2ccccc2)n(C2CCOCC2)c1=O [Compound 129]
Plant response rating, Flood, Barnyardgrass [1]: 60 | Plant response rating, Barnyardgrass [1, 14]: 0 | Plant response rating, Barnyardgrass [1, 15]: 10 | Barnyardgrass plant response rating [1]: 0 | Plant response rating, Flood, Rice [2]: 30 | Plant response rating, Rice [2, 14]: 0 | Plant response rating, Rice [2, 15]: 0 | Rice plant response rating [2]: 0 | Plant response rating, Flood, Ducksalad [3]: 100 | Plant response rating, Ducksalad [3, 14]: 90 | Plant response rating, Ducksalad [3, 15]: 90 | Ducksalad plant response rating [3]: 0 | Plant response rating, Flood, Sedge, Umbrella [4]: 60 | Plant response rating, Sedge, Umbrella [4, 14]: 0 | Plant response rating, Sedge, Umbrella [4, 15]: 60 | Sedge, Umbrella plant response rating [4]: 0 | Plant response rating, Barnyardgrass [5, 16]: 90 | Plant response rating, Barnyardgrass [5, 17]: 100 | Plant response rating, Barnyardgrass [5, 18]: 30 | Plant response rating, Barnyardgrass [5, 19]: 100 | Plant response rating, Morningglory [6, 16]: 100 | Plant response rating, Morningglory [6, 17]: 100 | Plant response rating, Morningglory [6, 19]: 90 | Plant response rating, Wheat [7, 16]: 0 | Plant response rating, Wheat [7, 17]: 20 | Plant response rating, Wheat [7, 18]: 0 | Plant response rating, Wheat [7, 19]: 0 | Plant response rating, Corn [8, 16]: 20 | Plant response rating, Corn [8, 17]: 50 | Plant response rating, Corn [8, 18]: 0 | Plant response rating, Corn [8, 19]: 0 | Plant response rating, Velvetleaf [9, 16]: 100 | Plant response rating, Velvetleaf [9, 17]: 100 | Plant response rating, Velvetleaf [9, 18]: 80 | Plant response rating, Velvetleaf [9, 19]: 90 | Plant response rating, Crabgrass, Large [10, 16]: 90 | Plant response rating, Crabgrass, Large [10, 17]: 90 | Plant response rating, Crabgrass, Large [10, 18]: 70 | Plant response rating, Crabgrass, Large [10, 19]: 90 | Plant response rating, Pigweed [11, 16]: 100 | Plant response rating, Pigweed [11, 17]: 100 | Plant response rating, Pigweed [11, 18]: 100 | Plant response rating, Pigweed [11, 19]: 100 | Plant response rating, Foxtail, Giant [12, 16]: 90 | Plant response rating, Foxtail, Giant [12, 17]: 90 | Plant response rating, Foxtail, Giant [12, 18]: 40 | Plant response rating, Foxtail, Giant [12, 19]: 80 | Windgrass plant response rating (0 to 100 scale) ([13]; 13 to 15 days): 60 | Plant response rating, Windgrass [13, 20]: 45 | Plant response rating, Windgrass [13, 21]: 80 | Plant response rating, Windgrass [13, 22]: 85

O=C1CCCC(O)=C1C(=O)c1cnc(-c2ccccc2)n(C2CCCCCC2)c1=O [Compound 130]
Plant response rating, Flood, Barnyardgrass [1]: 85 | Plant response rating, Barnyardgrass [1, 14]: 0 | Plant response rating, Barnyardgrass [1, 15]: 0 | Barnyardgrass plant response rating [1]: 0 | Plant response rating, Flood, Rice [2]: 25 | Plant response rating, Rice [2, 14]: 0 | Plant response rating, Rice [2, 15]: 0 | Rice plant response rating [2]: 0 | Plant response rating, Flood, Ducksalad [3]: 100 | Plant response rating, Ducksalad [3, 14]: 80 | Plant response rating, Ducksalad [3, 15]: 80 | Ducksalad plant response rating [3]: 60 | Plant response rating, Flood, Sedge, Umbrella [4]: 100 | Plant response rating, Sedge, Umbrella [4, 14]: 60 | Plant response rating, Sedge, Umbrella [4, 15]: 75 | Sedge, Umbrella plant response rating [4]: 40 | Plant response rating, Barnyardgrass [5, 16]: 100 | Plant response rating, Barnyardgrass [5, 17]: 100 | Plant response rating, Barnyardgrass [5, 18]: 20 | Plant response rating, Barnyardgrass [5, 19]: 90 | Plant response rating, Morningglory [6, 16]: 100 | Plant response rating, Morningglory [6, 17]: 100 | Plant response rating, Morningglory [6, 18]: 10 | Plant response rating, Morningglory [6, 19]: 80 | Plant response rating, Wheat [7, 16]: 0 | Plant response rating, Wheat [7, 17]: 30 | Plant response rating, Wheat [7, 18]: 0 | Plant response rating, Wheat [7, 19]: 0 | Plant response rating, Corn [8, 16]: 10 | Plant response rating, Corn [8, 17]: 50 | Plant response rating, Corn [8, 18]: 20 | Plant response rating, Corn [8, 19]: 30 | Plant response rating, Velvetleaf [9, 16]: 100 | Plant response rating, Velvetleaf [9, 17]: 100 | Plant response rating, Velvetleaf [9, 18]: 80 | Plant response rating, Velvetleaf [9, 19]: 90 | Plant response rating, Crabgrass, Large [10, 16]: 70 | Plant response rating, Crabgrass, Large [10, 17]: 100 | Plant response rating, Crabgrass, Large [10, 18]: 40 | Plant response rating, Crabgrass, Large [10, 19]: 100 | Plant response rating, Pigweed [11, 16]: 100 | Plant response rating, Pigweed [11, 17]: 100 | Plant response rating, Pigweed [11, 18]: 90 | Plant response rating, Pigweed [11, 19]: 100 | Plant response rating, Foxtail, Giant [12, 16]: 80 | Plant response rating, Foxtail, Giant [12, 17]: 90 | Plant response rating, Foxtail, Giant [12, 18]: 20 | Plant response rating, Foxtail, Giant [12, 19]: 90 | Windgrass plant response rating (0 to 100 scale) ([13]; 13 to 15 days): 65 | Plant response rating, Windgrass [13, 20]: 60 | Plant response rating, Windgrass [13, 21]: 75 | Plant response rating, Windgrass [13, 22]: 85
